In PMC5122408, “High throughput chemical library screening identifies a novel p110-δ inhibitor that potentiates the anti-myeloma effect of bortezomib” (Oncotarget, 2016):

Tests used:
ERBB2 = ERBB2 (Homo sapiens, UniProt P04626); set-up: method as in PMID 20959606; conditions: Other Clinically-relevant Kinases; cited from earlier work
PKC2-α = PKC2-α (Homo sapiens, UniProt O00443); set-up: method as in PMID 20959606; conditions: Class II PI3Ks; cited from earlier work
PDGFR = tested on: PDGFR; set-up: method as in PMID 20959606; conditions: Other Clinically-relevant Kinases; cited from earlier work
p110-δ = p110-δ (Homo sapiens, UniProt O00329); set-up: method as in PMID 20959606; key to the marks not given beside the values; conditions: Class I PI3Ks; cited from earlier work
p110-α = p110-α (Homo sapiens, UniProt P42336); set-up: method as in PMID 20959606; conditions: Class I PI3Ks; cited from earlier work
PKCγ = tested on: PKCγ; set-up: method as in PMID 20959606; conditions: cited from earlier work
CLL cells = assay: XTT viability, CLL cells (DT97 vs idelalisib); assay type: cell-based; conditions: 1 uM, 72 h, XTT assay
p110-γ = p110-γ (Homo sapiens, UniProt P48736); set-up: method as in PMID 20959606; key to the marks not given beside the values; conditions: Class I PI3Ks; cited from earlier work
ERBB4 = ERBB4 (Homo sapiens, UniProt Q15303); set-up: method as in PMID 20959606; conditions: Other Clinically-relevant Kinases; cited from earlier work
p110-β = p110-β (Homo sapiens, UniProt P42338); set-up: method as in PMID 20959606; conditions: Class I PI3Ks; cited from earlier work
MM.1S myeloma cells = assay: Mouse xenograft model of myeloma; assay type: in vivo, mice; conditions: subcutaneous myeloma xenograft; intravenous; bortezomib 0.5 mg/kg, DT97 10 mg/kg
Description: Five week old nude mice flanks are injected subcutaneously with MM.1S myeloma cells. Tumors formed within two weeks and mice were then treated intravenously with vehicle, bortezomib, DT97 or both bortezomib and DT97.
Subcutaneous tumors were generated after injection of myeloma cells. […] Vehicle or bortezomib was administered on days 1, 4, 8 and 11. Mice were euthanized when tumors reached 2 cm^3, became ulcerated or elicited neurologic or musculoskeletal complications that limited mobility and feeding. Survival and tumor growth were evaluated from the first day of treatment. Shown is the average of replicate measurements. […] Kaplan-Meier survival curves comparison of NOD. SCID mice after subcutaneous injection of parental myeloma cells treated with vehicle, DT97, bortezomib or both.
Mice received intravenous injection of either vehicle (PBS in 10% DMSO); bortezomib (0.5 mg/kg), DT97 (10 mg/kg) or both bortezomib and DT97. Tumor volume (TV) measurements were made using a vernier caliper and calculated using the formula: TV = 0.5 (a × b^2) where a is the long diameter and b the short diameter. Mice were euthanized when tumors reached 2 cm^3, became ulcerated or elicited neurologic or musculoskeletal complications that limited mobility and feeding.
In vivo statistical tests were performed using the 2-tailed Student t test.

Sequence of p110-γ (P48736 whole entry): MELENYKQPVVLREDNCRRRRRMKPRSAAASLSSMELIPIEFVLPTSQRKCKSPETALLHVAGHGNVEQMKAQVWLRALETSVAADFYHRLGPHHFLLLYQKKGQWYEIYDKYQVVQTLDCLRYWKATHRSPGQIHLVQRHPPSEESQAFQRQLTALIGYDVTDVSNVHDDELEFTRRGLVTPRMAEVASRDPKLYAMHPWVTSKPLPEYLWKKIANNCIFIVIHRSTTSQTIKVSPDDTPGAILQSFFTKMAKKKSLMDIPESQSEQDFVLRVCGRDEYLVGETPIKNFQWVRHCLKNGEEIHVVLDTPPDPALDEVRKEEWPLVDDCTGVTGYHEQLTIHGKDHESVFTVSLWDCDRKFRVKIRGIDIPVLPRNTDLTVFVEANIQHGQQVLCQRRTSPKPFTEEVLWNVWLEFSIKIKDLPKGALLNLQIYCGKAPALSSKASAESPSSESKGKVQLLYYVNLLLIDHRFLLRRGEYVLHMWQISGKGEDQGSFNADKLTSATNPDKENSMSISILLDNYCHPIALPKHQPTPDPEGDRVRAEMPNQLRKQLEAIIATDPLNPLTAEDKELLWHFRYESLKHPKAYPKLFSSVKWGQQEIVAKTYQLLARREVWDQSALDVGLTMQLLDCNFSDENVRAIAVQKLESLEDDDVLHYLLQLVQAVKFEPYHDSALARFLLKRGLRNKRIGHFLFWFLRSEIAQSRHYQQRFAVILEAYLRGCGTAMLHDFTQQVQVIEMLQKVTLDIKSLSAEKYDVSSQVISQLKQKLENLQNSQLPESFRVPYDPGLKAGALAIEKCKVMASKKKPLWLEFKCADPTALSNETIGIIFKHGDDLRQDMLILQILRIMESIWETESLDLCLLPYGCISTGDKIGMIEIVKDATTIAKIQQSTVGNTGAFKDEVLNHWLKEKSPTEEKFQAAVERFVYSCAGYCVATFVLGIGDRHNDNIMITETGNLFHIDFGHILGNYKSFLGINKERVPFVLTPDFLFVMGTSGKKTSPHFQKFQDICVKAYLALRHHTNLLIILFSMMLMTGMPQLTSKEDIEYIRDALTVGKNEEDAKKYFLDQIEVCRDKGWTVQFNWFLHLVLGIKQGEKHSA
Sequence of p110-δ (O00329 whole entry): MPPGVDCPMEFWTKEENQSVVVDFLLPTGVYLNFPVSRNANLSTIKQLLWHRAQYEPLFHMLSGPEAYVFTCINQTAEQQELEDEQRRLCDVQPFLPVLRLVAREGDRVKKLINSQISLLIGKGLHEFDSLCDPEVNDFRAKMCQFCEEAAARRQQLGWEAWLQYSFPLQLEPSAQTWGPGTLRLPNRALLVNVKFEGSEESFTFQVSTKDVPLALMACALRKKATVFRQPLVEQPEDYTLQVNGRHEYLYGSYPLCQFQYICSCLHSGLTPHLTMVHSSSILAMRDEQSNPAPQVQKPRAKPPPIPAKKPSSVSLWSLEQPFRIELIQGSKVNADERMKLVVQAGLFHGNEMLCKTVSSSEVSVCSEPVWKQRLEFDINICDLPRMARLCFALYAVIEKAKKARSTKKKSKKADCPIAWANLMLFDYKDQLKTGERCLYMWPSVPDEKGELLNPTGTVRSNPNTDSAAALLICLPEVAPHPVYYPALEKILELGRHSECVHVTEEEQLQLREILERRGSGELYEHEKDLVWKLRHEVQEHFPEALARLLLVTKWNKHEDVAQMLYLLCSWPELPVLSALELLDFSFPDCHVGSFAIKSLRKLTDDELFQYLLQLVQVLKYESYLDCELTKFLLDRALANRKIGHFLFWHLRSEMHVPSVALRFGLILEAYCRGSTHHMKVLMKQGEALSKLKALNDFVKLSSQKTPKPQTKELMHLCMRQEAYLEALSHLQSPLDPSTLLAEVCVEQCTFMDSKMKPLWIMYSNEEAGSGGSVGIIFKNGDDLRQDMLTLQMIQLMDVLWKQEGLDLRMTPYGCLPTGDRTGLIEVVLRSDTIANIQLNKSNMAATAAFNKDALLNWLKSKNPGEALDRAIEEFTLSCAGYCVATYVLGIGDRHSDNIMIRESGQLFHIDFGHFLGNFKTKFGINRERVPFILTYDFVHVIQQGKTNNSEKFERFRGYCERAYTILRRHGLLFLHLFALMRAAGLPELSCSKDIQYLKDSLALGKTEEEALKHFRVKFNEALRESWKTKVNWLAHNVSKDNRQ
Sequence of p110-δ (P27986 whole entry partner): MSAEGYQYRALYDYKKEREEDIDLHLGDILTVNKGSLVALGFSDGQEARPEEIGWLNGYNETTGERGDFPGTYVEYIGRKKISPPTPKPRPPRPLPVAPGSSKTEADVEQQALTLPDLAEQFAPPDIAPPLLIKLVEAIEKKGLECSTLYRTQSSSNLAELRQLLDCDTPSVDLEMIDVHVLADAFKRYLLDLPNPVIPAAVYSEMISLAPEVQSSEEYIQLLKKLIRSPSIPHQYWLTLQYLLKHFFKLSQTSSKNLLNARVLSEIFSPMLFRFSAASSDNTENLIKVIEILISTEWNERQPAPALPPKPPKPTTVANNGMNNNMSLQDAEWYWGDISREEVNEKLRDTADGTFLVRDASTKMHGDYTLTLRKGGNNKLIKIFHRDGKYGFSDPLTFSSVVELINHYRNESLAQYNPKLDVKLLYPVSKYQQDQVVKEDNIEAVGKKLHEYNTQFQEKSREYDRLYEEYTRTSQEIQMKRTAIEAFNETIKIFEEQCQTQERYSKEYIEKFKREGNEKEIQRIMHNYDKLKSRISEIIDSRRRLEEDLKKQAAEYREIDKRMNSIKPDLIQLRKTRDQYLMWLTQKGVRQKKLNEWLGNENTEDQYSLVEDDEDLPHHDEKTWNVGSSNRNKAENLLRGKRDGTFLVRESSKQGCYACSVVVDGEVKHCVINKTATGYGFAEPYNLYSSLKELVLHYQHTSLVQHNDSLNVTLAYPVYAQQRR
Sequence of PKC2-α (O00443 whole entry): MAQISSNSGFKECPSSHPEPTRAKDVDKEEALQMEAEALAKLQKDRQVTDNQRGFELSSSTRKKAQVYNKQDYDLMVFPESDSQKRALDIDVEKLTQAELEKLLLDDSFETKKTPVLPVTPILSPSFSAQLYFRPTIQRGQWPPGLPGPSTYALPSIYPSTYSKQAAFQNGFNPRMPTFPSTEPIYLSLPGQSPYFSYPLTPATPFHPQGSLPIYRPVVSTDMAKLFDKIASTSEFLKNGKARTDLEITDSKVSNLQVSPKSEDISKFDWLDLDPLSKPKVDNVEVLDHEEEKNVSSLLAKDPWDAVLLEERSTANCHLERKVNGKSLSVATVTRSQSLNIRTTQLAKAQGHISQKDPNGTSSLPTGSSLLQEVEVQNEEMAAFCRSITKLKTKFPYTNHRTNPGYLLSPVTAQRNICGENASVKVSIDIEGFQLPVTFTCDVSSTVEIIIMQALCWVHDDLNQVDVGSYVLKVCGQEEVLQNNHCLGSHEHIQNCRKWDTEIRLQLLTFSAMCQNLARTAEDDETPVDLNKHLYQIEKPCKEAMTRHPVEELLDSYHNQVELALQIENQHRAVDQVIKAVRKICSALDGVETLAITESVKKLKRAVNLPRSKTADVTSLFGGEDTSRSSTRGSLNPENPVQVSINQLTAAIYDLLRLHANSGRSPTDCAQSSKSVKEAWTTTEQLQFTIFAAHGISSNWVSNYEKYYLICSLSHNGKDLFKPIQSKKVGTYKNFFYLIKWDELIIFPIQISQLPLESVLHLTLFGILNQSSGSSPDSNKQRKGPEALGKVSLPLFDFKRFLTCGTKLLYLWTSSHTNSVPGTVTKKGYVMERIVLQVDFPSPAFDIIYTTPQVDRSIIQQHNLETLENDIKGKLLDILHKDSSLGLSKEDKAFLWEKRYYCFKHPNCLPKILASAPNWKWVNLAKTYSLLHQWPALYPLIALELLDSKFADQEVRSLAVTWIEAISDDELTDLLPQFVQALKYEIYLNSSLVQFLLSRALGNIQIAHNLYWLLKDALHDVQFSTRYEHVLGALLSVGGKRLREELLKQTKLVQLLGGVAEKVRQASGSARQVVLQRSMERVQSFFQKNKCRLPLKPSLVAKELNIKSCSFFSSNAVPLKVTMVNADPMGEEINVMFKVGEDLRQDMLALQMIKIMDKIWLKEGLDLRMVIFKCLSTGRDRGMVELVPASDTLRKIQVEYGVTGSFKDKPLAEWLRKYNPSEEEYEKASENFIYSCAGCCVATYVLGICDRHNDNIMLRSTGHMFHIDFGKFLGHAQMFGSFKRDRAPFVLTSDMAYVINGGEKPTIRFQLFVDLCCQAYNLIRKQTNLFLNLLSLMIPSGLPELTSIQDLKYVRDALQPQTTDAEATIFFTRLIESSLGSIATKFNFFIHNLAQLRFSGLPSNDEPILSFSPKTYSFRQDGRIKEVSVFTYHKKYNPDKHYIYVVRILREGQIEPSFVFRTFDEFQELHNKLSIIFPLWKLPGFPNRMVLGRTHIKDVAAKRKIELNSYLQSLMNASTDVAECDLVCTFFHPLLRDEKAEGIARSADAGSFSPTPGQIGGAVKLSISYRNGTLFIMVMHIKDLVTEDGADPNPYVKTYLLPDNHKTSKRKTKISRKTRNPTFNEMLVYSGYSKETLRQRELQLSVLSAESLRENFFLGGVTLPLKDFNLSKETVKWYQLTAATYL

| SMILES | Inhibitory profile (kinase inhibition) (ERBB2) | Inhibitory profile (kinase inhibition) (PKC2-α) | Inhibitory profile (kinase inhibition) (PDGFR) | Inhibitory profile (kinase inhibition) (p110-δ) | Inhibitory profile (kinase inhibition) (p110-α) | Inhibitory profile (kinase inhibition) (PKCγ) | viability (CLL cells) | Inhibitory profile (kinase inhibition) (p110-γ) | Inhibitory profile (kinase inhibition) (ERBB4) | Inhibitory profile (kinase inhibition) (p110-β) | overall survival (OS) (MM.1S myeloma cells) [days] | tumor growth (MM.1S myeloma cells) |
| --- | --- | --- | --- | --- | --- | --- | --- | --- | --- | --- | --- | --- |
| CC[C@H](Nc1ncnc2[nH]cnc12)c1nc2cccc(F)c2c(=O)n1-c1ccccc1 [Idelalisib, idelalisib] | none | none | none | +++ | + | none | more effectively reduced the viability | ++ | none | + |  |  |
| CC(C)C[C@H](NC(=O)[C@H](Cc1ccccc1)NC(=O)c1cnccn1)B(O)O [bortezomib] |  |  |  |  |  |  |  |  |  |  | 20 | dramatically reduced tumor growth |
